Experiment: xn = mol fraction of the nth substance listed
Conditions: 298.15 K, 101 kPa

CC(=O)[O-].CC[NH3+] + O
Conditions	electrical conductivity [S/m]
x1 = 0.003	0.782
x1 = 0.0103	1.89
x2 = 0	0.222
x2 = 0.2027	0.452
x2 = 0.3481	0.745
x2 = 0.7999	2.48
x2 = 0.8502	2.75
x2 = 0.9436	3.1
x2 = 0.9502	3.11
x2 = 0.96	3.08
x2 = 0.9685	2.9
x2 = 0.9799	2.65
